What all share (type): functional, Cercopithecidae
The subject of assay [1] is COS-7. The assay is described as follows: Transfection efficiency when the compound/DNA charge ratio was 3:1.
Assay [2] deals with COS-7. The assay is described as follows: Transfection efficiency when the compound/DNA charge ratio was 9:1.
Assay [3] has as its system COS-7. The assay is described as follows: Transfection efficiency when the compound/DNA charge ratio was 7:1.
The test system of assay [4] is COS-7. The assay is described as follows: Transfection efficiency when the compound/DNA charge ratio was 1:1.
The subject of assay [5] is COS-7. The assay is described as follows: Transfection efficiency when the compound/DNA charge ratio was 11:1.
Assay [6] concerns COS-7. The assay is described as follows: Transfection efficiency when the compound/DNA charge ratio was 5:1.
The test system of assay [7] is COS-7. The assay is described as follows: Transfection efficiency when the compound/DNA charge ratio was 15:1.
Assay [8] concerns COS-7. The assay is described as follows: Transfection efficiency when the compound/DNA charge ratio was 13:1.

Each structure is given as a SMILES string.

As to `CC(C)CCCC(C)[C@H]1CC[C@H]2C3CC=C4C[C@@H](OC(=O)C[N+](C)(C)C)CCC4(C)[C@H]3CCC12C` (stereo partly specified), the Transfection efficiency in assay [1] was 86600 RLU (ug of protein)-1; in assay [2], 4300 RLU (ug of protein)-1; in assay [3], 5300 RLU (ug of protein)-1; in assay [4], 17000 RLU (ug of protein)-1; in assay [5], 2800 RLU (ug of protein)-1; in assay [6] it was 20100 RLU (ug of protein)-1. Also, the figures for the Transfection efficiency in assay [7] and in assay [8] were 1700 RLU (ug of protein)-1 and 2000 RLU (ug of protein)-1, respectively.
In the case of `CC(C)CCCC(C)[C@H]1CC[C@H]2C3CC=C4C[C@@H](OC(=O)CCC(=O)NCCCN(C)C)CCC4(C)[C@H]3CCC12C` (stereo partly specified), the Transfection efficiency was 37300 RLU (ug of protein)-1 in assay [1]; 9800 RLU (ug of protein)-1 in assay [2]; 14800 RLU (ug of protein)-1 in assay [3]; 12800 RLU (ug of protein)-1 in assay [4]; 8800 RLU (ug of protein)-1 in assay [5]; 22500 RLU (ug of protein)-1 in assay [6]. Besides, the figures for the Transfection efficiency in assay [7] and in assay [8] were 8000 RLU (ug of protein)-1 and 7900 RLU (ug of protein)-1, respectively.
As for `CC(C)CCCC(C)[C@H]1CC[C@H]2C3CC=C4C[C@@H](OC(=O)CN(C)C)CCC4(C)[C@H]3CCC12C` (stereo partly specified), the Transfection efficiency in assay [1] is 4000 RLU (ug of protein)-1; in assay [2] it was 2000 RLU (ug of protein)-1; in assay [3] it was 1700 RLU (ug of protein)-1; in assay [4], 6900 RLU (ug of protein)-1; in assay [5], 3100 RLU (ug of protein)-1; in assay [6], 1500 RLU (ug of protein)-1. Also, the Transfection efficiency in assay [7] is on record as 3400 RLU (ug of protein)-1; in assay [8] it was 2100 RLU (ug of protein)-1.
With `CC(C)CCCC(C)[C@H]1CC[C@H]2C3CC=C4C[C@@H](OC(=O)CCC(=O)OCCCN(C)C)CCC4(C)[C@H]3CCC12C` (stereo partly specified), the Transfection efficiency in assay [1] is recorded as 9200 RLU (ug of protein)-1; in assay [2], 9100 RLU (ug of protein)-1; in assay [3] it was 8900 RLU (ug of protein)-1; in assay [4], 8000 RLU (ug of protein)-1; in assay [5] it was 6000 RLU (ug of protein)-1; in assay [6], 9200 RLU (ug of protein)-1. Besides, the figures for the Transfection efficiency in assay [7] and in assay [8] were 4700 RLU (ug of protein)-1 and 6100 RLU (ug of protein)-1, respectively.
`CC(C)CCCC(C)[C@H]1CC[C@H]2C3CC=C4C[C@@H](OC(=O)OCCN(C)C)CCC4(C)[C@H]3CCC12C` (stereo partly specified): the Transfection efficiency in assay [1] is on record as 93000 RLU (ug of protein)-1; in assay [2], 24800 RLU (ug of protein)-1; in assay [3], 41800 RLU (ug of protein)-1; in assay [4] it was 40500 RLU (ug of protein)-1; in assay [5] it was 15200 RLU (ug of protein)-1; in assay [6] it was 76600 RLU (ug of protein)-1. Further, the figures for the Transfection efficiency in assay [7] and in assay [8] were 7400 RLU (ug of protein)-1 and 10900 RLU (ug of protein)-1, respectively.
In the case of `CCCCCCCCCCCCCCOCC(COC(=O)C[N+](C)(C)C)OCCCCCCCCCCCCCC` (stereo unspecified), the Transfection efficiency is listed as 4100 RLU (ug of protein)-1 in assay [1]; 17700 RLU (ug of protein)-1 in assay [2]; 15100 RLU (ug of protein)-1 in assay [3]; 4200 RLU (ug of protein)-1 in assay [4]; 18700 RLU (ug of protein)-1 in assay [5]; 10000 RLU (ug of protein)-1 in assay [6]. For the same compound, the Transfection efficiency in assay [7] is given as 31400 RLU (ug of protein)-1; in assay [8], 29400 RLU (ug of protein)-1.
On to `CC(C)CCCC(C)[C@H]1CC[C@H]2C3CC=C4C[C@@H](OC(=O)OCC[N+](C)(C)CCO)CCC4(C)[C@H]3CCC12C` (stereo partly specified), for which the Transfection efficiency in assay [1] is reported as 83200 RLU (ug of protein)-1; in assay [2], 8700 RLU (ug of protein)-1; in assay [3], 10500 RLU (ug of protein)-1; in assay [4] it was 17300 RLU (ug of protein)-1; in assay [5] it was 8100 RLU (ug of protein)-1; in assay [6], 25500 RLU (ug of protein)-1. In addition, the Transfection efficiency in assay [7] is 5300 RLU (ug of protein)-1; in assay [8] it was 5000 RLU (ug of protein)-1.
In the case of `CC(C)CCCC(C)[C@H]1CC[C@H]2C3CC=C4C[C@@H](OC(=O)OCC[N+](C)(C)C)CCC4(C)[C@H]3CCC12C` (stereo partly specified), the Transfection efficiency in assay [1] is recorded as 97200 RLU (ug of protein)-1; in assay [2], 11400 RLU (ug of protein)-1; in assay [3], 45400 RLU (ug of protein)-1; in assay [4] it was 48500 RLU (ug of protein)-1; in assay [5], 3600 RLU (ug of protein)-1; in assay [6], 77200 RLU (ug of protein)-1. The Transfection efficiency in assay [7] was 2000 RLU (ug of protein)-1; in assay [8], 2200 RLU (ug of protein)-1.
On to `CC(C)CCCC(C)[C@H]1CC[C@H]2C3CC=C4C[C@@H](OC(=O)C[N+](C)(C)CCO)CCC4(C)[C@H]3CCC12C` (stereo partly specified), for which the Transfection efficiency is listed as 4800 RLU (ug of protein)-1 in assay [1]; 29600 RLU (ug of protein)-1 in assay [2]; 26500 RLU (ug of protein)-1 in assay [3]; 4300 RLU (ug of protein)-1 in assay [4]; 31100 RLU (ug of protein)-1 in assay [5]; 18500 RLU (ug of protein)-1 in assay [6]. For the same compound, the Transfection efficiency is reported as 31000 RLU (ug of protein)-1 in assay [7] and 30000 RLU (ug of protein)-1 in assay [8].
On to `CC(C)CCCC(C)[C@H]1CC[C@H]2C3CC=C4C[C@@H](OC(=O)CCC(=O)OCCN(C)C)CCC4(C)[C@H]3CCC12C` (stereo partly specified), for which the Transfection efficiency in assay [1] is listed as 27000 RLU (ug of protein)-1; in assay [2] it was 9600 RLU (ug of protein)-1; in assay [3], 10600 RLU (ug of protein)-1; in assay [4], 14000 RLU (ug of protein)-1; in assay [5], 7500 RLU (ug of protein)-1; in assay [6] it was 12200 RLU (ug of protein)-1. Besides, the Transfection efficiency in assay [7] is given as 6700 RLU (ug of protein)-1; in assay [8] it was 7200 RLU (ug of protein)-1.
Regarding `CCCCCCCCCCCCCCOCC(COC(=O)CN(C)C)OCCCCCCCCCCCCCC` (stereo unspecified), the Transfection efficiency was 8000 RLU (ug of protein)-1 in assay [1]; 1700 RLU (ug of protein)-1 in assay [2]; 600 RLU (ug of protein)-1 in assay [3]; 3300 RLU (ug of protein)-1 in assay [4]; 1000 RLU (ug of protein)-1 in assay [5]; 5500 RLU (ug of protein)-1 in assay [6]. For the same compound, the figures for the Transfection efficiency in assay [7] and in assay [8] were 600 RLU (ug of protein)-1 and 2500 RLU (ug of protein)-1, respectively.
As for `CC(C)CCCC(C)[C@H]1CC[C@H]2C3CC=C4C[C@@H](OC(=O)CCC(=O)NCCN(C)C)CCC4(C)[C@H]3CCC12C` (stereo partly specified), the Transfection efficiency in assay [1] is recorded as 41100 RLU (ug of protein)-1; in assay [2], 98100 RLU (ug of protein)-1; in assay [3], 108900 RLU (ug of protein)-1; in assay [4] it was 17000 RLU (ug of protein)-1; in assay [5], 75400 RLU (ug of protein)-1; in assay [6] it was 94100 RLU (ug of protein)-1. Besides, the Transfection efficiency is recorded as 36500 RLU (ug of protein)-1 in assay [7] and 54300 RLU (ug of protein)-1 in assay [8].

The values are drawn from ChEMBL document CHEMBL1133337, “Synthesis and transfection properties of novel non-toxic monocationic lipids. Variation of lipid anchor, spacer and head group structure” (2000).
